Reference: PMC4303209, “A novel phosphatidylinositol 3-kinase (PI3K) inhibitor directs a potent FOXO-dependent, p53-independent cell cycle arrest phenotype characterized by the differential induction of a subset of FOXO-regulated genes” (Breast Cancer Research : BCR, 2014)

Tested on: MCF-7 breast cancer cells
Experiment: Microarray gene expression analysis (Agilent whole human genome 4 x 44K; compound vs DMSO, LIMMA log2 fold change)
Format: cell-based
Conditions: Apoptosis genes

`Oc1cccc(-c2nc(N3CCOCC3)c3oc4ncccc4c3n2)c1` [PI-103] was tested, and the “PML log2FC” value (Gene 5371) was -0.410, the “POLR2G log2FC” value (Gene 5436) was 0.401 and the “POU3F3 log2FC” value (Gene 5455) was -0.338. The “POU4F1 log2FC” value (Gene 5457) was -0.488, the “POU4F3 log2FC” value (Gene 5459) was -0.095 and the “PPARD log2FC” value (Gene 5467) was -0.189. The “PPARG log2FC” value (Gene 5468) was -0.320, the “PPID log2FC” value (Gene 5481) was -0.224 and the “PPP1CA log2FC” value (Gene 5499) was -0.185. For the same compound, the “PPP2CA log2FC” value (Gene 5515) was -0.522, the “PPP2CB log2FC” value (Gene 5516) was -0.272 and the “PPP2R1B log2FC” value (Gene 5519) was -0.663. The “PPP2R2B log2FC” value (Gene 5521) was 0.085, the “PPP2R4 log2FC” value (Gene 5524) was -0.318 and the “PPP2R5C log2FC” value (Gene 5527) was 0.778. The “PPP3CC log2FC” value (Gene 5533) was 0.049, the “PPP3R1 log2FC” value (Gene 5534) was -0.344 and the “PPT1 log2FC” value (Gene 5538) was 0.180. The “PRF1 log2FC” value (Gene 5551) was 0.035, the “PRKAA1 log2FC” value (Gene 5562) was 0.297 and the “PRKAA2 log2FC” value (Gene 5563) was 0.067. The “PRKCA log2FC” value (Gene 5578) was -0.157, the “PRKCD log2FC” value (Gene 5580) was 0.117 and the “PRKCE log2FC” value (Gene 5581) was -0.00329. For the same compound, the “PRKCG log2FC” value (Gene 5582) was 0.076, the “PRKCH log2FC” value (Gene 5583) was -0.184 and the “PRKCI log2FC” value (Gene 5584) was 0.477. For the same compound, the “PKN2 log2FC” value (Gene 5586) was 0.513, the “PRKD1 log2FC” value (Gene 5587) was 0.547 and the “PRKCQ log2FC” value (Gene 5588) was 0.186. The “PRKCZ log2FC” value (Gene 5590) was 0.565, the “PRKDC log2FC” value (Gene 5591) was 0.275 and the “MAPK3 log2FC” value (Gene 5595) was -0.116. For the same compound, the “MAPK7 log2FC” value (Gene 5598) was -0.110, the “MAP2K6 log2FC” value (Gene 5608) was 0.357 and the “PRODH log2FC” value (Gene 5625) was -0.118. For the same compound, the “LGMN log2FC” value (Gene 5641) was -0.107, the “PSEN1 log2FC” value (Gene 5663) was 0.372 and the “PSEN2 log2FC” value (Gene 5664) was -0.390. The “PSMA2 log2FC” value (Gene 5683) was 0.170, the “PSMA3 log2FC” value (Gene 5684) was 0.144 and the “PSMA4 log2FC” value (Gene 5685) was 0.470. For the same compound, the “PSMA6 log2FC” value (Gene 5687) was 0.068, the “PSMB1 log2FC” value (Gene 5689) was 0.009 and the “PSMB2 log2FC” value (Gene 5690) was -0.432. The “PSMB4 log2FC” value (Gene 5692) was 0.171, the “PSMB5 log2FC” value (Gene 5693) was -0.219 and the “PSMB6 log2FC” value (Gene 5694) was -0.080. For the same compound, the “PSMB9 log2FC” value (Gene 5698) was -0.100, the “PSMB10 log2FC” value (Gene 5699) was -0.116 and the “PSMC1 log2FC” value (Gene 5700) was -0.009. The “PSMC2 log2FC” value (Gene 5701) was 0.279, the “PSMC3 log2FC” value (Gene 5702) was -0.185 and the “PSMC5 log2FC” value (Gene 5705) was -0.314. For the same compound, the “PSMC6 log2FC” value (Gene 5706) was 0.515, the “PSMD1 log2FC” value (Gene 5707) was 0.029 and the “PSMD3 log2FC” value (Gene 5709) was -0.074. The “PSMD4 log2FC” value (Gene 5710) was -0.036, the “PSMD5 log2FC” value (Gene 5711) was 0.189 and the “PSMD7 log2FC” value (Gene 5713) was 0.00364. For the same compound, the “PSMD8 log2FC” value (Gene 5714) was -0.122, the “PSMD9 log2FC” value (Gene 5715) was -0.396 and the “PSMD10 log2FC” value (Gene 5716) was -0.344. For the same compound, the “PSMD11 log2FC” value (Gene 5717) was -0.327, the “PSMD12 log2FC” value (Gene 5718) was -0.768 and the “PSME1 log2FC” value (Gene 5720) was 0.313. The “PTEN log2FC” value (Gene 5728) was 0.958, the “PTGFR log2FC” value (Gene 5737) was -0.038 and the “PTGIS log2FC” value (Gene 5740) was -0.013. The “PTH log2FC” value (Gene 5741) was -0.180, the “PTGS2 log2FC” value (Gene 5743) was -0.053 and the “PTK2 log2FC” value (Gene 5747) was 0.040. The “PTPN6 log2FC” value (Gene 5777) was 0.257, the “PTPRC log2FC” value (Gene 5788) was -0.026 and the “PTPRH log2FC” value (Gene 5794) was 0.545. The “RAC1 log2FC” value (Gene 5879) was -0.226, the “RAD9A log2FC” value (Gene 5883) was 0.679 and the “RAD21 log2FC” value (Gene 5885) was 0.829. For the same compound, the “RAG1 log2FC” value (Gene 5896) was 0.688, the “RALB log2FC” value (Gene 5899) was 0.076 and the “RARA log2FC” value (Gene 5914) was -0.310. For the same compound, the “RARG log2FC” value (Gene 5916) was -0.122, the “RASA1 log2FC” value (Gene 5921) was 0.472 and the “RASGRF2 log2FC” value (Gene 5924) was 0.069. The “RB1 log2FC” value (Gene 5925) was 0.674, the “RELA log2FC” value (Gene 5970) was -0.351 and the “DPF2 log2FC” value (Gene 5977) was 0.525. The “REST log2FC” value (Gene 5978) was 0.317, the “ROBO1 log2FC” value (Gene 6091) was 0.307 and the “ROBO2 log2FC” value (Gene 6092) was 0.013. The “ROCK1 log2FC” value (Gene 6093) was 0.642, the “RPS3A log2FC” value (Gene 6189) was 0.496 and the “RPS6 log2FC” value (Gene 6194) was 0.259. For the same compound, the “RPS6KA1 log2FC” value (Gene 6195) was -0.106, the “RPS6KA3 log2FC” value (Gene 6197) was 0.273 and the “RPS6KB1 log2FC” value (Gene 6198) was 0.247. The “RPS27A log2FC” value (Gene 6233) was 0.447, the “RTKN log2FC” value (Gene 6242) was -0.055 and the “SORT1 log2FC” value (Gene 6272) was 0.382. The “S100A8 log2FC” value (Gene 6279) was -0.346, the “S100B log2FC” value (Gene 6285) was -0.112 and the “SATB1 log2FC” value (Gene 6304) was 0.836. For the same compound, the “SCT log2FC” value (Gene 6343) was -0.026, the “CCL2 log2FC” value (Gene 6347) was -0.193 and the “CCL3 log2FC” value (Gene 6348) was -0.075. The “CCL5 log2FC” value (Gene 6352) was 0.070, the “CCL21 log2FC” value (Gene 6366) was -0.020 and the “CX3CL1 log2FC” value (Gene 6376) was -0.245. For the same compound, the “CXCL12 log2FC” value (Gene 6387) was -0.262, the “MAP2K4 log2FC” value (Gene 6416) was -0.057 and the “SET log2FC” value (Gene 6418) was 0.155. For the same compound, the “SFRP1 log2FC” value (Gene 6422) was 0.243, the “SFRP2 log2FC” value (Gene 6423) was -0.008 and the “SFRP4 log2FC” value (Gene 6424) was 0.079. For the same compound, the “SFRP5 log2FC” value (Gene 6425) was -0.036, the “ITSN1 log2FC” value (Gene 6453) was 0.185 and the “SHB log2FC” value (Gene 6461) was -0.563. For the same compound, the “SHH log2FC” value (Gene 6469) was -0.168, the “SIAH1 log2FC” value (Gene 6477) was 0.170 and the “SIAH2 log2FC” value (Gene 6478) was -0.479. The “STIL log2FC” value (Gene 6491) was 0.014, the “SIX1 log2FC” value (Gene 6495) was -0.700 and the “SKI log2FC” value (Gene 6497) was -0.565. For the same compound, the “SLC9A1 log2FC” value (Gene 6548) was -0.632, the “SLIT3 log2FC” value (Gene 6586) was -0.267 and the “SNAI2 log2FC” value (Gene 6591) was 0.040. For the same compound, the “SMO log2FC” value (Gene 6608) was 0.037, the “SMPD1 log2FC” value (Gene 6609) was 0.629 and the “SMPD2 log2FC” value (Gene 6610) was -0.222. For the same compound, the “SIGLEC1 log2FC” value (Gene 6614) was -0.395, the “SNAI1 log2FC” value (Gene 6615) was -0.868 and the “SNCB log2FC” value (Gene 6620) was -0.584. The “SNCA log2FC” value (Gene 6622) was -0.028, the “SOD2 log2FC” value (Gene 6648) was 0.190 and the “SON log2FC” value (Gene 6651) was -0.153. The “SOX2 log2FC” value (Gene 6657) was 0.228, the “SOX4 log2FC” value (Gene 6659) was 0.369 and the “SOX9 log2FC” value (Gene 6662) was -2.014. For the same compound, the “SOX10 log2FC” value (Gene 6663) was -0.037, the “SP100 log2FC” value (Gene 6672) was 0.688 and the “SPI1 log2FC” value (Gene 6688) was -0.418. For the same compound, the “SPN log2FC” value (Gene 6693) was 0.011, the “SRC log2FC” value (Gene 6714) was -0.352 and the “SRPK2 log2FC” value (Gene 6733) was 0.776. For the same compound, the “SST log2FC” value (Gene 6750) was 0.576, the “SSTR3 log2FC” value (Gene 6753) was -0.180 and the “STAR log2FC” value (Gene 6770) was -0.178. For the same compound, the “STAT1 log2FC” value (Gene 6772) was 0.221, the “STAT5A log2FC” value (Gene 6776) was 0.392 and the “STAT5B log2FC” value (Gene 6777) was 0.109. For the same compound, the “STK4 log2FC” value (Gene 6789) was -0.017, the “STK11 log2FC” value (Gene 6794) was 0.00114 and the “STXBP1 log2FC” value (Gene 6812) was -0.400. For the same compound, the “SUPV3L1 log2FC” value (Gene 6832) was 0.284, the “ADAM17 log2FC” value (Gene 6868) was 0.527 and the “TAF9 log2FC” value (Gene 6880) was 0.095. For the same compound, the “MAP3K7 log2FC” value (Gene 6885) was 0.00173.
